In article PMC11206245 (Pharmaceuticals, 2024):
Entries after “also recorded” stand apart in the source; their conditions may differ. Where two headings read alike, the source gives them in different places.

Columns and labels:
[1] = Study A dose-escalation protocol: 17-AAG pharmacokinetics in plasma (HPLC); format: in vivo; details: dogs; for AUC / Cmax / half-life: female, dog; for AUC: AUC0–8h; for half-life: read-out: t½ (converted)
Protocol: (§1) In Studies A and B, an intravenous catheter was placed in the cephalic vein of each animal’s right and left anterior limbs. […] Under both protocols, blood samples were centrifuged at 1500× g at 4 °C for 10 min.
For the mobile phase, acetonitrile (ACN, J.T.Baker®, Philadelphia, PA, USA) and water with 1% acetic acid (J.T.Baker®)were used. Briefly, aliquots of 200 µL of plasma or 100 µL of subcutaneous interstitial liquid were placed in a 1.5 mL microcentrifuge tube. Subsequently, 600 µL and 300 µL of ACN were added to all plasma and subcutaneous interstitial liquid samples, respectively. The mixture was vortexed for 30 s, followed by centrifugation at 3400× g for 10 min. Next, 500 µL of the plasma supernatant and 250 µL of the subcutaneous interstitial fluid were pipetted into a new vial. The method was validated in accordance with the International Council for Harmonization (ICH) technical requirements for the evaluation of medicinal products. […] No matrix interferences were observed. Two calibrated plasma curves of 17-AAG were validated with different injection volumes. […] Data acquisition and processing were performed using LabSolutions software (Version 5.3).
(§2) Cmax, half-life (t ½), distribution volume, and clearance were also determined. Data were analyzed in Excel and WinNonlin using a mono-compartmental model.

healthy dogs [2] = assay: Study B: histopathology of tissues after treatment; format: in vivo; details: nine dogs, three IV doses of 150 mg/m^2
Protocol: (§3) Study B involved 9 healthy dogs (8 females and 1 male), including the 4 females from Study A after wash-out and upon confirmation of regular laboratory evaluations. […] Tolerability evaluations were performed via clinical examinations and blood sampling for laboratory evaluation after each treatment. For toxicity assessments, 4, 6, and 8 h after the final administration, the animals were euthanized for tissue collection and histopathological evaluation.
(§4) Hemograms were performed following blood collection.

[3] = design: method as in PMID 22124669, PMID 20618337; details: humans; cited from earlier work
healthy dogs [4] = assay: Study B: safety and toxicity, side and adverse effects, plasma biochemistry; format: in vivo
Protocol: as §3, §4

[5] = Study B multiple administrations of 150 mg/m^2: 17-AAG pharmacokinetics in plasma (HPLC); format: in vivo, dogs; details: dog, iv; for AUC(0-t) / Cmax / half-life: both sexes, plasma, dogs, mean ± SD; for AUC(0-t): 150 mg/m2, AUC 0–8 h, Study B; for Cmax / half-life: 150 mg/m2, Study B; for half-life: read-out: t ½ (converted); for Clearance / DV (distribution volume): in vivo
Protocol: as §3, §1
For the mobile phase, acetonitrile (ACN, J.T.Baker®, Philadelphia, PA, USA) and water with 1% acetic acid (J.T.Baker®)were used. Briefly, aliquots of 200 µL of plasma or 100 µL of subcutaneous interstitial liquid were placed in a 1.5 mL microcentrifuge tube. Subsequently, 600 µL and 300 µL of ACN were added to all plasma and subcutaneous interstitial liquid samples, respectively. The mixture was vortexed for 30 s, followed by centrifugation at 3400× g for 10 min. Next, 500 µL of the plasma supernatant and 250 µL of the subcutaneous interstitial fluid were pipetted into a new vial. […] Data acquisition and processing were performed using LabSolutions software (Version 5.3).
as §2

[6] = Study A, plasma, single IV dose 50 mg/m^2, mean ± SD
[7] = Study A, plasma, single IV dose 100 mg/m^2, mean ± SD
[8] = Study A, plasma, single IV dose 150 mg/m^2, mean ± SD
[9] = Study A, plasma, single IV dose 200 mg/m^2, mean ± SD
[10] = Study A, plasma, single IV dose 250 mg/m^2, mean ± SD
[11] = 50 mg/m2, Study A, plasma, single IV dose 50 mg/m^2, mean ± SD
[12] = 100 mg/m2, Study A, plasma, single IV dose 100 mg/m^2, mean ± SD
[13] = 150 mg/m2, Study A, plasma, single IV dose 150 mg/m^2, mean ± SD
[14] = 200 mg/m2, Study A, plasma, single IV dose 200 mg/m^2, mean ± SD
[15] = 250 mg/m2, Study A, plasma, single IV dose 250 mg/m^2, mean ± SD
[16] = Study B, third day, out of nine dogs
[17] = 1st of three IV administrations of 150 mg/m^2 at 48 h intervals
[18] = 2nd of three IV administrations of 150 mg/m^2 at 48 h intervals
[19] = 3rd of three IV administrations of 150 mg/m^2 at 48 h intervals

C=CCNC1=C2C[C@@H](C)C[C@H](OC)[C@H](O)[C@@H](C)/C=C(\C)[C@H](OC(N)=O)[C@@H](OC)/C=C\C=C(/C)C(=O)NC(=CC1=O)C2=O [17-AAG, 17-(allylamino)-17-demethoxygeldanamycin]
Clearance from plasma, on average ([1]; Study A, average over doses 50–250 mg/m^2): 0.026 ± 0.010 L/h/m^2
Dose-proportionality of Cmax and AUC ([1]; Study A, plasma, IV doses 50–250 mg/m^2): linear correlation between doses ranging from 50 to 200 mg/m^2; also recorded: dose-proportionate between the 50 and 200 mg/m^2 doses
Clearance [1, 6]: 0.04 ± 0.02 L/m^2/h
DV (distribution volume) [1, 6]: 0.03 ± 0.02 L/m^2
Clearance [1, 7]: 0.03 ± 0.01 L/m^2/h
DV (distribution volume) [1, 7]: 0.02 ± 0.01 L/m^2
Clearance [1, 8]: 0.02 ± 0.00 L/m^2/h
DV (distribution volume) [1, 8]: 0.02 ± 0.00 L/m^2
Clearance [1, 9]: 0.02 ± 0.00 L/m^2/h
DV (distribution volume) [1, 9]: 0.02 ± 0.00 L/m^2
Clearance [1, 10]: 0.03 ± 0.01 L/m^2/h
DV (distribution volume) [1, 10]: 0.02 ± 0.00 L/m^2
maximum plasma concentration (Cmax), lower end of range ([1]; abstract, after single IV doses 50–250 mg/m^2): 1405 ± 686 ng/mL
AUC [1, 11]: 1480 ± 695 ng·h/mL
Cmax ([1]; 50 mg/m2, Study A, plasma, single IV dose 50 mg/m^2, mean ± SD, read-out: Cmax): 1410 ± 687 ng/mL
half-life [1, 11]: 32.4 ± 1.8 min
AUC [1, 12]: 4380 ± 1630 ng·h/mL
Cmax ([1]; 100 mg/m2, Study A, plasma, single IV dose 100 mg/m^2, mean ± SD, read-out: Cmax): 3760 ± 1420 ng/mL
half-life [1, 12]: 36.6 ± 4.8 min
AUC [1, 13]: 7930 ± 1550 ng·h/mL
Cmax ([1]; 150 mg/m2, Study A, plasma, single IV dose 150 mg/m^2, mean ± SD, read-out: Cmax): 6940 ± 1340 ng/mL
half-life [1, 13]: 35.4 ± 2.4 min
AUC [1, 14]: 11900 ng·h/mL
Cmax ([1]; 200 mg/m2, Study A, plasma, single IV dose 200 mg/m^2, mean ± SD, read-out: Cmax): 9440 ± 991 ng/mL
half-life [1, 14]: 40.2 ± 3 min
AUC [1, 15]: 9630 ± 2670 ng·h/mL
Cmax ([1]; 250 mg/m2, Study A, plasma, single IV dose 250 mg/m^2, mean ± SD, read-out: Cmax): 8610 ± 1060 ng/mL
half-life [1, 15]: 34.2 ± 12.6 min
Cmax ([1]; plasma, abstract, after single IV doses 50–250 mg/m^2, read-out: maximum plasma concentration (Cmax), upper end of range): 9440 ± 991 ng/mL
Histopathological alterations in the lung and heart (healthy dogs [2]): no histopathological alterations
half-life [3]: 180 to 360 min
Animals with elevated transaminase levels persisting (healthy dogs [4]; Study B, by the fourth day): only one animal
Animals with bloody diarrhea (healthy dogs [4]; Study B, fourth day): one animal
Animals with pale feces (healthy dogs [4]; Study B, fourth day): seven out of nine
Dogs with elevated levels of ALT and AST (healthy dogs [4]; Study B, multiple doses of 150 mg/m^2, three out of nine): 33%
Animals with pasty feces (healthy dogs [4]; Study B, second day after administering the second dose): two out of nine
Animals with bloody diarrhea (healthy dogs [4]; [16]): one
Animals with diarrhea with liquid feces (healthy dogs [4]; [16]): three
Animals with pasty feces (healthy dogs [4]; [16]): two
Dogs presenting elevated levels of ALT, AST and GGT (healthy dogs [4]; Study B, three IV doses of 150 mg/m^2): 3/9
Animals with skin reaction with temporarily erupted hairs (healthy dogs [4]; dog, in vivo): only one animal
Animals presenting adverse reactions: ALT (healthy dogs [4]; dog, in vivo, iv): 3 (33%) n (%)
Animals presenting adverse reactions: AST (healthy dogs [4]; dog, in vivo, iv): 3 (33%) n (%)
Animals presenting adverse reactions: bloody diarrhea (healthy dogs [4]; dog, in vivo, iv): 1 (11%) n (%)
Animals presenting adverse reactions: diarrhea (liquid feces) (healthy dogs [4]; dog, in vivo, iv): 3 (33%) n (%)
Animals presenting adverse reactions: erythema (healthy dogs [4]; dog, in vivo, iv): 0 n (%)
Animals presenting adverse reactions: hyperthermia (healthy dogs [4]; dog, in vivo, iv): 0 n (%)
Animals presenting adverse reactions: nausea (healthy dogs [4]; dog, in vivo, iv): 0 n (%)
Animals presenting adverse reactions: pasty feces (healthy dogs [4]; dog, in vivo, iv): 9 (100%) n (%)
Animals presenting adverse reactions: pruritus (healthy dogs [4]; dog, in vivo, iv): 0 n (%)
Animals presenting adverse reactions: vomit (healthy dogs [4]; dog, in vivo, iv): 0 n (%)
AUC(0-t) [5, 17]: 6350 ± 432 ng·h/mL
AUC(0-t) [5, 18]: 7050 ± 382 ng·h/mL
AUC(0-t) [5, 19]: 6850 ± 69 ng·h/mL
Cmax [5, 17]: 6310 ± 2200 ng/mL
Cmax [5, 18]: 5910 ± 1130 ng/mL
Cmax [5, 19]: 5250 ± 2780 ng/mL
half-life [5, 17]: 41.4 ± 13.2 min
half-life [5, 18]: 41.4 ± 14.4 min
half-life [5, 19]: 48.6 ± 21 min
Clearance ([5]; 1st administration): 0.023 ± 0.002 L/m^2/h
DV (distribution volume) ([5]; 1st administration): 0.029 ± 0.003 L/m^2
Clearance ([5]; 2nd administration): 0.021 ± 0.001 L/m^2/h
DV (distribution volume) ([5]; 2nd administration): 0.030 ± 0.002 L/m^2
Clearance ([5]; 3rd administration): 0.022 ± 0.002 L/m^2/h
DV (distribution volume) ([5]; 3rd administration): 0.033 ± 0.003 L/m^2
